Measurements published in PMC9862096, “Interaction of a Homologous Series of Amphiphiles with P-glycoprotein in a Membrane Environment—Contributions of Polar and Non-Polar Interactions” (Pharmaceutics, 2023).

Columns and labels:
[1] = Association (partition) with model membranes (LUVs POPE:POPC:POPS 45:35:20); format: physicochemical; conditions: aqueous phase to model lipid bilayer
Procedure: The model membranes with a phospholipid composition representative of that of the native membranes (POPE:POPC:POPS 45:35 20) were prepared from stock solutions of the required lipids in chloroform or in chloroform/methanol (87/13, v/v), as described before. The solvent-free lipid residue was hydrated at 40 °C with previously heated simplified ATPase assay buffer (with all components except Ouabain and DTT). Large Unilamelar Vesicles were prepared by extrusion through two-staked polycarbonate filters (100 nm pore diameter), and the size of the LUVs was analyzed by dynamic light scattering (Zetasizer Nano ZS, Malvern, UK) being close to the filter pore size.
(§1) The membranes were diluted to the chosen concentration with simplified ATPase assay buffer and warmed to 37 °C. The NBD amphiphiles were added from stocks in DMSO (final DMSO 1% v/v) by squirting the required volume into the membrane solution under gentle vortex. Fluorescence intensity was measured after 15 to 30 min incubation at 37 °C using a Cary Eclipse spectrofluorimeter (Varian, Singapore). The path length of the sample container was selected to guarantee that scattering at the excitation wavelength was smaller than 0.1 while maintaining a good signal/noise ratio (3, 5, or 10 mm).
(§2) The increase in fluorescence of the NBD amphiphiles when associated with the model membranes was well described by a simple partition (Equation (S3)). The low affinity of the less lipophilic amphiphiles for the native membranes required the use of high membrane concentrations, and the fluorescence was measured with the plate reader SpectraMax iD5 (Molecular Devices, Berkshire, UK), where the reading setup is not very sensitive to scatter. To guarantee that the high scatter intensity was not leading to artifacts in the measured fluorescence intensity of NBD–C4, titrations of NBD-C6 and NBD–C8 were also performed in the same plate. For these two latter amphiphiles, the results obtained for the partition coefficient were similar to those obtained for experiments with low scatter intensity. A small decrease in the fluorescence intensity from NBD–C8 was nevertheless observed at very high scatter intensities (OD ≥ 0.5), which was used to correct the signal from the less lipophilic amphiphiles, see Supplementary Information (Figure S5 and Equation (S4)). The molar volume considered for the lipid was 0.8 dm^3/mol, and 1.2 g/mL was considered for the density of the membrane proteins.
S3 – Partition of the NBD amphiphiles to lipid bilayers and native membranes
The fluorescence increase that accompanies the association of the NBD amphiphiles with the
model membra nes was well defined by a simple partition, equation S3.
If 1540 nm Lb= + S3, KVL[]
where IfW and If M are respec ti vel y the fluorescence intensity when all fluorescent amphiphile is
in the aqueous phase and ass oci ated with the membranes, LbK is the partition co eff icient P
between the aqueous and the lipid bilayer, V is the molar vo l u m e of the lipid when in the lipid L
bi l ayer, and [L] is the lipid concentration. […]

[2] = Association (partition) of the NBD amphiphiles with native membranes, NBD fluorescence; format: physicochemical, High-Five insect cells; conditions: for KPW→M: aqueous phase to native membrane
Procedure: as §1, §2
S3 – Partition of the NBD amphiphiles to lipid bilayers and native membranes The fluorescence increase that accompanies the association of the NBD amphiphiles with the model membra nes was well defined by a simple partition, equation S3. […]
where IfW and If M are respec ti vel y the fluorescence intensity when all fluorescent amphiphile is in the aqueous phase and ass oci ated with the membranes, LbK is the partition co eff icient P between the aqueous and the lipid bilayer, V is the molar vo l u m e of the lipid when in the lipid L bi l ayer, and [L] is the lipid concentration.
To characterize the association of the NBD amphiphiles with the native membranes the whole membrane vo lume was considere d, including the lipid bilayer and the membrane proteins. For the ca se of the less lipophilic amphiphiles NBD‐C4 and NBD‐C6, a sig nif ica nt scatter from the […]
both to the larger size of the vesicles (ca 1 µm diameter, [1]) and to the high refractive index of the native membranes. The magnitude of the scatter effect was quantified through the best fit […]
partition to the membranes at co n ce ntrations where scatter is not significant. The modified […]
where s is the scatter correction factor for a given concentration of native membranes, If W and IfM are respectively the fluorescence intensity when all fluorescent amphiphile is in the aqueous phase and associated with the membranes, WMK → is the partition coefficient between the P aqueous phase and the native membrane, V is the molar volume of the lipid when in the L membrane and [L] the molar concentration of the membrane lipids, V is the vo lume occupied P by 1 g of membrane protein (assuming a density of 1.2 g/mL) and [P] is the protein concentration in units of ma ss per volume.
Typical results obtained for the variation of the fluorescence intensity at 540 nm of the NBD‐Cn fluorophores equilibrated with increasing concentrations of native membranes, are shown in figure S3. The fluorescence intensity was measured in black 96 well plates with the plate reader […]
SpectraMax iD5. The NBD‐Cn concentrations we re 0.5 µM for NBD‐C8 , 1 µM for NBD‐C6, and 2 µM for NBD‐C4, and the total volume per well was 150 µL. […]

[3] = cited from earlier work
[4] = Partition coefficient to membrane proteins from Equations (1) and (2), all membrane proteins with equal affinity; format: physicochemical, High-Five insect cells; conditions: binding to all membrane proteins with equal affinity
Text: (§3) From the partition coefficient obtained for the native membranes, KPW→M , and that for the model lipid bilayers, KPW→Lb , one can calculate the partition coefficient between the aqueous phase and the proteins in the membrane, KPW→P , and from the lipid bilayer to the proteins, KPLb→P , Equations (1) and (2), [40]. (1) KPW→M VM=KPW→PVP+KPW→Lb VLb (2) KPLb→P=KPW→P/KPW→Lb
(§4) In Equation (1) it is necessary to include the volume occupied by the proteins, and the values obtained will, therefore, depend on whether it is considered that the amphiphile may interact with all proteins in the membrane or with P–gp only.

[5] = tested on: P–gp; assay: Partition coefficient to membrane protein from Equations (1) and (2), binding to P–gp only; format: physicochemical, mouse; conditions: binding to the protein P–gp only
Text: as §3, §4

[6] = biological target: T1, mP–gp (Mus musculus, UniProt P21447); assay: Photolabeling of P–gp with [125I]-IAAP / IAAP displacement; format: binding; conditions: concentration of 2 μM, positive control
T1 construct: made in house; host or cells: High-Five insect cells (Invitrogen), recombinant baculovirus; total membrane vesicles
Procedure: The native membranes of High-Five insect cells expressing mP–gp (1.0 mg/mL) were incubated at room temperature with the indicated concentrations of the inhibitor for 5 min. IAAP (5 to 7 nM) was later added, and the reaction mixture was further incubated for 5 min under subdued light. The samples were photocross-linked with 366 nm UV light for 10 min at room temperature, followed by electrophoresis and quantification, as described previously. The raw data are shown in the Supplementary Information (Figure S4). The results were first analyzed with the usual equation, considering the total concentration of IAAP and NBD amphiphile, as well as competitive inhibition of IAAP binding, see Supplementary Information (Equation (S2)). The dissociation constant considered for IAAP was taken from the literature, 412 nM [15]. The results were also analyzed with a formalism derived in this manuscript considering the distribution of the NBD amphiphile in the distinct environments (aqueous phase, lipid bilayer, and P–gp), the distribution of IAAP between the aqueous media and P–gp, and several equal and independent binding sites in P–gp’s binding pocket, Equation (10).
In this assay, in addition to the binding of the NBD amphiphiles to P–gp binding pocket, it is also necessary to consider the binding of IAAP. The concentration of IAAP used in the assay (5 nM) is several orders of magnitude smaller than that of the amphiphiles in study, and it is also smaller than the total concentration of P–gp (59 nM). Therefore, Equation (8) may be used to calculate the concentration of free ligand and protein. The fraction of IAAP bound to P–gp may then be calculated from Equation (10), where P^* is the concentration of P–gp available for IAAP binding. (10) IP/IT=−b−b^2−4ac/2aa=1; b=−1+KdIAAP/IT+P^*/IT; c=P^*/IT
The number of binding sites in P–gp binding pocket was varied from 1 to 5, and three situations were considered in the analysis: (i) full inhibition of IAAP binding when at least one NBD amphiphile is in the P–gp binding pocket ( i≥1 ), corresponding to P^*=P; (ii) inhibition of IAAP binding only when P–gp is fully saturated ( i=n ), corresponding to P^*=P+∑i=1n−1PLi; and (iii) an intermediate situation with IAAP displacement for i≥n−1 , corresponding to P^*=P+∑i=1n−2PLi .
The displacement of IAAP from P–gp binding pocket was calculated from Equation (11), where IP0 is the concentration of IAAP bound to P–gp in the absence of the NBD amphiphiles. (11) IAAP displacement %=100IP0−IP/IP0

[7] = biological target: T1, mP–gp; parameters: method as in PMID 28283574; conditions: positive control; read-out: KI, inhibition of IAAP binding; cited from earlier work
[8] = e.g. 1 M trehalose; cited from earlier work

T1 sequence (P21447 whole entry): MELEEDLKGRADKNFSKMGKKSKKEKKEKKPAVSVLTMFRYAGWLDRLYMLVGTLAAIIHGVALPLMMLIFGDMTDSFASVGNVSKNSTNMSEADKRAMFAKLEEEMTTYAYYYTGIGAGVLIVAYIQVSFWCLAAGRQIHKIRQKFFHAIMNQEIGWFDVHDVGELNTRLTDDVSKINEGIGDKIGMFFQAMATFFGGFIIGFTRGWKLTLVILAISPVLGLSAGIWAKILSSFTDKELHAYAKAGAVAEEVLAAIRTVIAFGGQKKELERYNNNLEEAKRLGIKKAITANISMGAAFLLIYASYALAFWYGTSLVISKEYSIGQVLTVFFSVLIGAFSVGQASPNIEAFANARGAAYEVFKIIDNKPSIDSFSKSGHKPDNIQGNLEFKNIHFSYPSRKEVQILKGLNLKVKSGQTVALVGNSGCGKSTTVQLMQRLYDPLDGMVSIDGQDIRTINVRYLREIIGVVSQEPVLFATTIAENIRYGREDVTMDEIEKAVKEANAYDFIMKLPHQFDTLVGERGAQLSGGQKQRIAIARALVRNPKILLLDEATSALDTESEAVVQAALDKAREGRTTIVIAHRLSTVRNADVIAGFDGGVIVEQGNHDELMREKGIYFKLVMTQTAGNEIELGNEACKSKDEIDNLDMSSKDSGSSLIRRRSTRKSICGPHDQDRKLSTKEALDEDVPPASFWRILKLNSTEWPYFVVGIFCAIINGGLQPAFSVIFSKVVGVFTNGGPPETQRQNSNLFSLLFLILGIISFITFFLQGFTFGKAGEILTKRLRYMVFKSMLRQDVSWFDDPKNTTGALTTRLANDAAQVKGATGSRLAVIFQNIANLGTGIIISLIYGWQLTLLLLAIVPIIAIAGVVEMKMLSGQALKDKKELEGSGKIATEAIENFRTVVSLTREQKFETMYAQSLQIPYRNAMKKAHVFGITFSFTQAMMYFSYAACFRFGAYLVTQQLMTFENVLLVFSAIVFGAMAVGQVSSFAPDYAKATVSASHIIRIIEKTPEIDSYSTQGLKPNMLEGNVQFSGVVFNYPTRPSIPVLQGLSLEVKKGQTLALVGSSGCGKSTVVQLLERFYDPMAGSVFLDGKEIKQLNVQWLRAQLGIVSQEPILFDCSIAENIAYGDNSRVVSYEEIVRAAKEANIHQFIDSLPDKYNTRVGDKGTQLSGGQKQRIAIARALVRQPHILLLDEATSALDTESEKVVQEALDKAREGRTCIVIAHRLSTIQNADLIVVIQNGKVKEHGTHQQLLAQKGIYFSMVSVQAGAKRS

SMILES: CCCCCCNc1ccc([N+](=O)[O-])c2nonc12 [NBD-C6]
- KPW→Lb ([1]; section: binding to all membrane proteins with equal affinity): 2.4 × 10^3
- KPW→Lb ([1]; section: binding to the protein P–gp only): 2.4 × 10^3
- LogKP, association with the native membranes ([2]; 37 °C, simplified ATPase assay buffer): 3.20 ± 0.26
- KPW→M ([2]; membrane volume = phospholipid bilayer and P–gp (binding to the protein P–gp only)): 3.9 × 10^3
- KPW→M ([2]; membrane volume = phospholipid bilayer and all proteins (binding to all membrane proteins with equal affinity)): 1.6 × 10^3
- LogKP, association with POPC bilayers [3]: 3.79
- KPW→P ([4]; aqueous phase to proteins): 1.0 × 10^3
- KPLb→P ([4]; lipid bilayer to proteins): 0.43
- KPW→P ([5]; aqueous phase to protein): 1.0 × 10^5
- KPLb→P ([5]; lipid bilayer to protein): 43

SMILES: COc1cc2c(cc1OC)CN(CCc1ccc(NC(=O)c3cc(OC)c(OC)cc3NC(=O)c3cnc4ccccc4c3)cc1)CC2 [Tariquidar, reference compound]
- Inhibition of IAAP binding [6]: efficient inhibition of IAAP binding
- Ki [7]: 200 nM

SMILES: CCCCCCCCCCNc1ccc([N+](=O)[O-])c2nonc12 [NBD-C10]
- increase of CAC in the presence of co-solvent [8]: 6 fold
